According to patent US20250188110A1, “SPECIFIC SMALL MOLECULE INHIBITORS THAT BLOCK KMT9 METHYLTRANSFERASE ACTIVITY AND FUNCTION” (ALBERT-LUDWIGS-UNIVERSITÄT FREIBURG, priority 2021, published 2025):

Legend:
KMT9 [1] = molecular target: T1, KMT9 (Homo sapiens, UniProt Q9Y5N5); assay: KMT9 methyltransferase inhibition assay, 3H-SAM scintillation (entries 1-154); assay type: biochemical; details: entries 1-154: 3H-SAM assay, 25 nM KMT9, 5 μM ETF1
T1 sequence (Q9Y5N5 1-214): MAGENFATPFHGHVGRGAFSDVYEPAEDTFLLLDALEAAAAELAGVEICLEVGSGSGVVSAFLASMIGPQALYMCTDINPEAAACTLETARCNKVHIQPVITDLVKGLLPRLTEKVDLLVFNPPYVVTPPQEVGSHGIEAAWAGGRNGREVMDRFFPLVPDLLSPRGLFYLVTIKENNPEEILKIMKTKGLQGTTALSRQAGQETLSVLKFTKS
T1 sequence (Q9UI30 1-120 isoform Q9UI30-2 partner): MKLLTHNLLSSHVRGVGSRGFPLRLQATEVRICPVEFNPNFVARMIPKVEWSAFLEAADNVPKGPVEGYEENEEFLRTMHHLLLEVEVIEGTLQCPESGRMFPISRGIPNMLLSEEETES
Summary of the method: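 Final 25 nM KMT9, 5 μM ETF1 (residues 140-275), 0.3 μM 3H-SAM plus 0.7 μM SAM in pH 8.5 BTP buffer, 2 h at 30° C. TCA-quenched, filter-washed, methylation counted by scintillation; % inhibition vs DMSO and no-enzyme controls, IC50 from four-parameter fit.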

KMT9 [2] = molecular target: T1, KMT9; assay: KMT9 thermal shift assay (SyproOrange); assay type: binding; details: ΔTm; 500 µM compound, 2 μM KMT9, 5X SO; read-out: Thermal shift
Summary of the method: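 Recombinant KMT9 was incubated with compound and SyproOrange at 25° C in 50 mM BTP pH 8.5, 1 mM MgCl2, 1 mM DTT. It was then heated from 20° C to 95° C at 1° C per 15 s with fluorescence read each step. Tm came from a Boltzmann sigmoidal fit; ΔTm relative to DMSO control, binned in 5 K ranges.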

KMT9 [3] = molecular target: T1, KMT9; assay: Microscale thermophoresis (MST) KMT9 binding; details: microscale thermophoresis, His-tag labelled KMT9 (20 nM); read-out: MST
Summary of the method: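 His-tagged KMT9 (20 nM), RED-Tris-NTA labelled, titrated with varying compound concentrations in 25 mM HEPES pH 7.5, 100 mM NaCl, 1 mM DTT, 0.05% Tween. MST at 40% MST and 100% LED power, Nano-RED excitation; Kd binned A ≤10 nM, B 10–100, C 100–1000, D >1000 nM.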

For `Nc1ncnc2c1c(-c1nccs1)cn2[C@@H]1C[C@H](CN(CCCNCCc2ccc(F)cc2)c2cn[nH]c2)[C@@H](O)[C@H]1O` [Compound 599, (1R,2S,3R,5R)-3-[4-Amino-5-(1,3-thiazol-2-yl)pyrrolo[2,3-d]pyrimidin-7-yl]-5-{[(3-{[2-(4-fluorophenyl)ethyl]amino}propyl)(1H-pyrazol-4-yl)amino]methyl}cyclopentane-1,2-diol], the IC50 (KMT9 [1]) was less than 100 nM, the ΔTm at 500 µM (KMT9 [2]) was 15 to 20 °C and the Kd (KMT9 [3]) was no more than 10 nM.

`CS(=O)(=O)n1ccc(-c2cn([C@@H]3C[C@H](CNCCCNCCc4ccccc4)[C@@H](O)[C@H]3O)c3ncnc(N)c23)n1` [Compound 600, (1R,2S,3R,5R)-3-(4-Amino-5-(1-(methylsulfonyl)-1H-pyrazol-3-yl)-7H-pyrrolo[2,3-d]pyrimidin-7-yl)-5-(((3-(phenethylamino)propyl)amino)methyl)cyclopentane-1,2-diol] gave an IC50 (KMT9 [1]) of less than 100 nM, a ΔTm at 500 µM (KMT9 [2]) of 15 to 20 °C and a Kd (KMT9 [3]) of no more than 10 nM.

`Nc1ncnc2c1c(-c1ncns1)cn2[C@@H]1C[C@H](CNCCCNCCc2ccccc2)[C@@H](O)[C@H]1O` [Compound 601, (1R,2S,3R,5R)-3-(4-amino-5-(1,2,4-thiadiazol-5-yl)-7H-pyrrolo[2,3-d]pyrimidin-7-yl)-5-(((3-(phenethylamino)propyl)amino)methyl)cyclopentane-1,2-diol] was tested, and the IC50 (KMT9 [1]) was 1000 to 10000 nM, the ΔTm at 500 µM (KMT9 [2]) was 10 to 15 °C and the Kd (KMT9 [3]) was 100 to 1000 nM.

`Nc1ncnc2c1c(-c1nccs1)cn2[C@@H]1C[C@H](CNCCCNCCc2ccc(F)cc2)[C@@H](O)[C@H]1O` [Compound 602, (1R,2S,3R,5R)-3-[4-Amino-5-(1,3-thiazol-2-yl)pyrrolo[2,3-d]pyrimidin-7-yl]-5-{[(3-{[2-(4-fluorophenyl)ethyl]amino}propyl)amino]methyl}cyclopentane-1,2-diol] showed an IC50 (KMT9 [1]) of 100 to 1000 nM, a ΔTm at 500 µM (KMT9 [2]) of 15 to 20 °C and a Kd (KMT9 [3]) of 10 to 100 nM.

In the case of `Nc1ncnc2c1ccn2[C@@H]1C[C@H](CN(CCCNCCc2ccc(F)cc2)c2c[nH]nc2Br)[C@@H](O)[C@H]1O` [Compound 603, (1R,2S,3R,5R)-3-{4-Aminopyrrolo[2,3-d]pyrimidin-7-yl}-5-{[(3-bromo-2H-pyrazol-4-yl)(3-{[2-(4-fluorophenyl)ethyl]amino}propyl)amino]methyl}cyclopentane-1,2-diol], the IC50 (KMT9 [1]) is reported as 100 to 1000 nM, the ΔTm at 500 µM (KMT9 [2]) is reported as 15 to 20 °C and the Kd (KMT9 [3]) is reported as no more than 10 nM.

With `Nc1ncnc2c1c(-c1ccn(S(=O)(=O)c3ccccc3)n1)cn2[C@@H]1C[C@H](CNCCCNCCc2ccccc2)[C@@H](O)[C@H]1O` [Compound 604, (1R,2S,3R,5R)-3-(4-Amino-5-(1-(phenylsulfonyl)-1H-pyrazol-3-yl)-7H-pyrrolo[2,3-d]pyrimidin-7-yl)-5-(((3-(phenethylamino)propyl)amino)methyl)cyclopentane-1,2-diol] the IC50 (KMT9 [1]) was less than 100 nM, the ΔTm at 500 µM (KMT9 [2]) was 15 to 20 °C and the Kd (KMT9 [3]) was no more than 10 nM.

With `Nc1ncnc2c1c(-c1nc(Cc3ccccc3)cs1)cn2[C@@H]1C[C@H](CNCCCNCCc2ccccc2)[C@@H](O)[C@H]1O` [Compound 605, (1R,2S,3R,5R)-3-(4-Amino-5-(4-benzylthiazol-2-yl)-7H-pyrrolo[2,3-d]pyrimidin-7-yl)-5-(((3-(phenethylamino)propyl)amino)methyl)cyclopentane-1,2-diol] the IC50 (KMT9 [1]) was 100 to 1000 nM, the ΔTm at 500 µM (KMT9 [2]) was 15 to 20 °C and the Kd (KMT9 [3]) was 10 to 100 nM.

`CNc1ncnc2c1ccn2[C@@H]1C[C@H](CN(CCCN)c2cn[nH]c2Br)[C@@H](O)[C@H]1O` [Compound 606, (1S,2R,3R,5R)-3-{[(3-Aminopropyl)(3-bromo-2H-pyrazol-4-yl)amino]methyl}-5-[4-(methylamino)pyrrolo[2,3-d]pyrimidin-7-yl]cyclopentane-1,2-diol] showed an IC50 (KMT9 [1]) greater than 10000 nM, a ΔTm at 500 µM (KMT9 [2]) of no more than 10 °C and a Kd (KMT9 [3]) greater than 1000 nM.

`C=Cc1cn([C@@H]2C[C@H](CNCCCNCCc3ccccc3)[C@@H](O)[C@H]2O)c2ncncc12` [Compound 608, (1R,2S,3R,5R)-3-{5-ethenylpyrrolo[2,3-d]pyrimidin-7-yl}-5-[({3-[(2-phenylethyl)amino]propyl}amino)methyl]cyclopentane-1,2-diol] showed an IC50 (KMT9 [1]) greater than 10000 nM, a ΔTm at 500 µM (KMT9 [2]) of no more than 10 °C and a Kd (KMT9 [3]) of 100 to 1000 nM.

`CCc1cn([C@@H]2C[C@H](CNCCCNCCc3ccccc3)[C@@H](O)[C@H]2O)c2ncncc12` [Compound 609, (1R,2S,3R,5R)-3-{5-ethylpyrrolo[2,3-d]pyrimidin-7-yl}-5-[({3-[(2-phenylethyl)amino]propyl}amino)methyl]cyclopentane-1,2-diol] gave an IC50 (KMT9 [1]) greater than 10000 nM, a ΔTm at 500 µM (KMT9 [2]) of no more than 10 °C and a Kd (KMT9 [3]) of 100 to 1000 nM.

Molecule `C=Cc1cn([C@@H]2C[C@H](CNCCCNCCc3ccccc3)[C@@H](O)[C@H]2O)c2ncnc(C)c12` [Compound 610, (1R,2S,3R,5R)-3-(4-Methyl-5-vinyl-7H-pyrrolo[2,3-d]pyrimidin-7-yl)-5-(((3-(phenethylamino)propyl)amino)methyl)cyclopentane-1,2-diol] has an IC50 (KMT9 [1]) greater than 10000 nM, a ΔTm at 500 µM (KMT9 [2]) of no more than 10 °C and a Kd (KMT9 [3]) greater than 1000 nM.

`CCc1cn([C@@H]2C[C@H](CNCCCNCCc3ccccc3)[C@@H](O)[C@H]2O)c2ncnc(C)c12` [Compound 611, (1R,2S,3R,5R)-3-(5-ethyl-4-methyl-7H-pyrrolo[2,3-d]pyrimidin-7-yl)-5-(((3-(phenethylamino)propyl)amino)methyl)cyclopentane-1,2-diol] showed an IC50 (KMT9 [1]) greater than 10000 nM, a ΔTm at 500 µM (KMT9 [2]) of no more than 10 °C and a Kd (KMT9 [3]) greater than 1000 nM.

`C=Cc1cn([C@@H]2C[C@H](CNCCCNCCc3ccccc3)[C@@H](O)[C@H]2O)c2ncnc(Cl)c12` [Compound 612, (1R,2S,3R,5R)-3-{4-chloro-5-ethenylpyrrolo[2,3-d]pyrimidin-7-yl}-5-[{{3-[(2-phenylethyl)amino]propyl}amino)methyl]cyclopentane-1,2-diol] gave an IC50 (KMT9 [1]) greater than 10000 nM, a ΔTm at 500 µM (KMT9 [2]) of no more than 10 °C and a Kd (KMT9 [3]) greater than 1000 nM.

Molecule `O=S(=O)(c1ccccc1)n1ccc(-c2cn([C@@H]3C[C@H](CNCCCNCCc4ccccc4)[C@@H](O)[C@H]3O)c3ncncc23)n1` [Compound 614, (1S,2R,3R,5R)-3-(((3-(Phenethylamino)propyl)amino)methyl)-5-(5-(1-(phenylsulfonyl)-1H-pyrazol-3-yl)-7H-pyrrolo[2,3-d]pyrimidin-7-yl)cyclopentane-1,2-diol] has an IC50 (KMT9 [1]) of 1000 to 10000 nM, a ΔTm at 500 µM (KMT9 [2]) of 10 to 15 °C and a Kd (KMT9 [3]) of 100 to 1000 nM.

In the case of `CNC(=O)[C@H]1C[C@@H](n2cc3c4c(ncnc42)NCCC3)[C@H](O)[C@@H]1O` [Compound 624, (1S,2R,3S,4R)-2,3-Dihydroxy-N-methyl-4-(6,7,8,9-tetrahydro-2H-2,3,5,6-tetraazabenzo[cd]azulen-2-yl)cyclopentane-1-carboxamide], the IC50 (KMT9 [1]) is reported as greater than 10000 nM, the ΔTm at 500 µM (KMT9 [2]) is reported as no more than 10 °C and the Kd (KMT9 [3]) is reported as greater than 1000 nM.

`CN(C)C(=O)[C@H]1C[C@@H](n2cc3c4c(ncnc42)NCCC3)[C@H](O)[C@@H]1O` [Compound 625, (1S,2R,3S,4R)-2,3-Dihydroxy-N,N-dimethyl-4-(6,7,8,9-tetrahydro-2H-2,3,5,6-tetraazabenzo[cd]azulen-2-yl)cyclopentane-1-carboxamide] showed an IC50 (KMT9 [1]) greater than 10000 nM, a ΔTm at 500 µM (KMT9 [2]) of no more than 10 °C and a Kd (KMT9 [3]) greater than 1000 nM.

With `NC[C@H]1C[C@@H](n2cc3c4c(ncnc42)NC(=O)CC3)[C@H](O)[C@@H]1O` [Compound 626, 2-((1R,2S,3R,4R)-4-(Aminomethyl)-2,3-dihydroxycyclopentyl)-2,6,8,9-tetrahydro-7H-2,3,5,6-tetraazabenzo[cd]azulen-7-one] the IC50 (KMT9 [1]) was greater than 10000 nM, the ΔTm at 500 µM (KMT9 [2]) was no more than 10 °C and the Kd (KMT9 [3]) was greater than 1000 nM.

For `O=C1CCc2cn([C@@H]3C[C@H](CNCCCNCCc4ccccc4)[C@@H](O)[C@H]3O)c3ncnc(c23)N1` [Compound 627, 2-((1R,2S,3R,4R)-2,3-dihydroxy-4-(((3-(phenethylamino)propyl)amino)methyl)cyclopentyl)-2,6,8,9-tetrahydro-7H-2,3,5,6-tetraazabenzo[cd]azulen-7-one], the IC50 (KMT9 [1]) was greater than 10000 nM, the ΔTm at 500 µM (KMT9 [2]) was no more than 10 °C and the Kd (KMT9 [3]) was 100 to 1000 nM.

`CC1CCNc2ncnc3c2c1cn3[C@@H]1C[C@H](CN)[C@@H](O)[C@H]1O` (stereo partly drawn) [Compound 629, (1S,2R,3R,5R)-3-(Aminomethyl)-5-(9-methyl-6,7,8,9-tetrahydro-2H-2,3,5,6-tetraazabenzo[cd]azulen-2-yl)cyclopentane-1,2-diol] was tested, and the IC50 (KMT9 [1]) was greater than 10000 nM, the ΔTm at 500 µM (KMT9 [2]) was no more than 10 °C and the Kd (KMT9 [3]) was greater than 1000 nM.

With `NC[C@H]1C[C@@H](n2cc3c4c(ncnc42)NCCCC3)[C@H](O)[C@@H]1O` [Compound 630, (1S,2R,3R,5R)-3-(Aminomethyl)-5-(7,8,9,10-tetrahydro-2,3,5,6-tetraazacycloocta [cd]inden-2 (6H)-yl)cyclopentane-1,2-diol] the IC50 (KMT9 [1]) was greater than 10000 nM, the ΔTm at 500 µM (KMT9 [2]) was no more than 10 °C and the Kd (KMT9 [3]) was greater than 1000 nM.
